Target: T1, Sirt6 (Homo sapiens, UniProt Q8N6T7)
T1 construct: purchased CycLex CY-1156V2
Experiment: Measurement of Sirt6 Activity (CycLex Sirt6 Deacetylase Fluorometric Assay Kit)
Type: biochemical
Settings: compound at 10 μM, fluorescence relative to the group without compound treatment (positive control group)
Procedure: LC-MS (ESI, m/z)=430.1 (M+H^+) Experimental Example 1: Measurement of Sirt6 Activity Compounds having Sirt6 activity were selected using a CycLex Sirt6 Deacetylase Fluorometric Assay Kit (cat. CY-1156V2) manufactured by CycLex.
When a fluorescent-attached acetylated lysine substrate is treated with Sirt6 enzyme, Sirt6 deacetylates the acetylated lysine of the substrate and lysylendopeptidase cleaves the C-terminal peptide bond connected to the lysine, by which fluorescence is emitted. The activity of a compound is calculated by observing the intensity of fluorescence when the compound is treated along with Sirt6 enzyme. When treating the compound, the compound aids in the activity of Sirt6 enzyme, so as to result in stronger fluorescence. Therefore, by calculating the ratio of the stronger fluorescence relative to the fluorescence emitted from the group without compound treatment (i.e., positive control group), relative activity can be calculated.
Activity evaluation was performed according to the following procedure.
The compound whose activity is to be evaluated was prepared by diluting in phosphate-buffered saline (PBS) to 10 times of the desired concentration (e.g., when measuring Sirt6 assay activity at 10 μM, the compound is prepared at a concentration of 100 μM in PBS). 1 μL of a 1 Ox Sirt6 assay buffer, 0.8 μL of 50× fluoro-substrate peptide, 1 μL of nicotinamide adenine dinucleotide (NAD), 1 μL of a developer and 4.2 μL of H2O were mixed to prepare mixtures equal to the number of samples, and 8 μL was dispensed into each Black 384 well. An additional 1 μL of PBS was added to each of a “no enzyme group” and a positive control group, and 1 μL of the compound diluted in PBS was added to an activity evaluation group. Recombinant Sirt6 was 1:8 diluted in a 1×Sirt6 assay buffer, and 1 μL thereof was added to each of the positive control group and the activity evaluation group. 1 μL of the 1×Sirt6 assay buffer was added to the “no enzyme group.” After reacting at room temperature for one hour, results were measured with a fluorescence spectrometer (excitation: 490±10 nm, emission: 530±10 nm) to confirm the presence or absence of Sirt6 activity and measure the intensity of the activity.

T1 sequence (Q8N6T7 whole entry): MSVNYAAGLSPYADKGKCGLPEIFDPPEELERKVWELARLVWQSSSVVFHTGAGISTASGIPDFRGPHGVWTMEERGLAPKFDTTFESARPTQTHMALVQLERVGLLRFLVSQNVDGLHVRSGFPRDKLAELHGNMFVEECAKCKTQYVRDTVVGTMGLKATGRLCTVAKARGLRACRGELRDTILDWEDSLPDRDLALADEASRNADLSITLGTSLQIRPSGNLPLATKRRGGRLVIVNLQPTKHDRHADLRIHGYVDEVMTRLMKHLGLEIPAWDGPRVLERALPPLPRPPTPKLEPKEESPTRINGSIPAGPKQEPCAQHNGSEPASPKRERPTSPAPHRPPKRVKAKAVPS

Structure (SMILES)	Sirt6 Activity (% activity, 10 μM) [% activity]	Sirt6 Activity (% activity, 10 μM) (10 µM) [% activity]
CCS(=O)(=O)Nc1cccc(-c2nn(-c3ccccc3)c(=O)c3ccccc23)c1 [Example 1, N-(3-(4-Oxo-3-phenyl-3,4-dihydrophthalazin-1-yl)phenyl)ethanesulfonamide]	170	
Nc1cccc(-c2nn(-c3ccc(C(F)(F)F)cc3)c(=O)c3ccccc23)c1 [Example 2, 4-(3-Aminophenyl)-2-(4-(trifluoromethyl)phenyl)phthalazin-1(2H)-one]	88	
CCS(=O)(=O)Nc1cccc(-c2nn(-c3ccc(C(F)(F)F)cc3)c(=O)c3ccccc23)c1 [Example 3, N-(3-(4-Oxo-3-(4-(trifluoromethyl)phenyl)-3,4-dihydrophthalazin-1-yl)phenyl)ethanesulfonamide]	104	
CCNc1cccc(-c2nn(-c3ccc(C(F)(F)F)cc3)c(=O)c3ccccc23)c1 [Example 4, 4-(3-(Ethylamino)phenyl)-2-(4-(trifluoro-methyl)phenyl)phthalazin-1(2H)-one]	102	
CCS(=O)(=O)N(C)c1cccc(-c2nn(-c3ccc(C(F)(F)F)cc3)c(=O)c3ccccc23)c1 [Example 5, N-Methyl-N-(3-(4-oxo-3-(4-(trifluoromethyl)phenyl)-3,4-dihydrophthalazin-1-yl)phenyl)ethanesulfonamide]	105	
CS(=O)(=O)Nc1cccc(-c2nn(-c3ccccc3)c(=O)c3ccccc23)c1 [Example 6, N-(3-(4-Oxo-3-phenyl-3,4-dihydrophthalazin-1-yl)phenyl)methanesulfonamide]	102	
CN(c1cccc(-c2nn(-c3ccccc3)c(=O)c3ccccc23)c1)S(C)(=O)=O [Example 7, N-Methyl-N-(3-(4-oxo-3-phenyl-3,4-dihydro-phthalazin-1-yl)phenyl)methanesulfonamide]	173	
CCS(=O)(=O)Nc1ccc(-c2nn(-c3ccccc3)c(=O)c3ccccc23)cc1 [Example 8, N-(4-(4-Oxo-3-phenyl-3,4-dihydrophthalazin-1-yl)phenyl)ethanesulfonamide]	100	
CN(C)S(=O)(=O)Nc1cccc(-c2nn(-c3ccccc3)c(=O)c3ccccc23)c1 [Example 9]	154	
CS(=O)(=O)Nc1cccc(-c2nn(-c3ccc(F)cc3)c(=O)c3ccccc23)c1 [Example 10, N-(3-(3-(4-Fluorophenyl)-4-oxo-3,4-dihydrophthalazin-1-yl)phenyl)methanesulfonamide]	198	
CCS(=O)(=O)Nc1cccc(-c2nn(-c3ccc(F)cc3)c(=O)c3ccccc23)c1 [Example 11, N-(3-(3-(4-Fluorophenyl)-4-oxo-3,4-dihydrophthalazin-1-yl)phenyl)ethanesulfonamide]	162	
CN(C)S(=O)(=O)Nc1cccc(-c2nn(-c3ccc(F)cc3)c(=O)c3ccccc23)c1 [Example 12, N-(3-(3-(4-Fluorophenyl)-4-oxo-3,4-dihydrophthalazin-1-yl)phenyl)dimethylsulfamoylamide]	189	
C/[N+]([O-])=C/c1cccc(-c2nn(-c3ccccc3)c(=O)c3ccccc23)c1 [Example 13, (Z)—N-Methyl-1-(3-(4-oxo-3-phenyl-3,4-dihydrophthalazin-1-yl)phenyl)methanimine Oxide]	181	
CC(C)/[N+]([O-])=C/c1cccc(-c2nn(-c3ccccc3)c(=O)c3ccccc23)c1 [Example 14, (Z)—N-Isopropyl-1-(3-(4-oxo-3-phenyl-3,4-dihydrophthalazin-1-yl)phenyl)methanimine Oxide]	121	
C/[N+]([O-])=C/c1cccc(-c2nn(-c3ccc(F)cc3)c(=O)c3ccccc23)c1 [Example 15, (Z)-1-(3-(3-(4-Fluorophenyl)-4-oxo-3,4-dihydrophthalazin-1-yl)phenyl)-N-methylmethanimine Oxide]	231	
CC/[N+]([O-])=C/c1cccc(-c2nn(-c3ccc(F)cc3)c(=O)c3ccccc23)c1 [Example 16, (Z)—N-Ethyl-1-(3-(3-(4-fluorophenyl)-4-oxo-3,4-dihydrophthalazin-1-yl)phenyl)methanimine Oxide]	221	
CC(C)/[N+]([O-])=C/c1cccc(-c2nn(-c3ccc(F)cc3)c(=O)c3ccccc23)c1 [Example 17, (Z)-1-(3-(3-(4-Fluorophenyl)-4-oxo-3,4-dihydrophthalazin-1-yl)phenyl)-N-isopropylmethanimine Oxide]		207
CS(=O)(=O)N(c1cc(-c2nn(-c3ccccc3)c(=O)c3ccccc23)ccc1Cl)S(C)(=O)=O [Example 18, N-(2-Chloro-5-(4-oxo-3-phenyl-3,4-dihydrophthalazin-1-yl)phenyl)-N-(methylsulfonyl)methane-sulfonamide]	114	
CN(C)S(=O)(=O)Nc1cc(-c2nn(-c3ccccc3)c(=O)c3ccccc23)ccc1Cl [Example 19, N-(3-(3-(Phenyl)-4-oxo-3,4-dihydrophthalazin-1-yl)-6-chlorophenyl)dimethyl Sulfamoylamide]	120	
COC(=O)NS(=O)(=O)Nc1cccc(-c2nn(-c3ccc(F)cc3)c(=O)c3ccccc23)c1 [Example 20, Methyl (N-(3-(3-(4-fluorophenyl)-4-oxo-3,4-dihydrophthalazin-1-yl)phenyl)sulfamoyl) Carbamate]	211	
C/[N+]([O-])=C/c1cccc(-c2nn(-c3ccc(F)cc3F)c(=O)c3ccccc23)c1 [Example 21, (Z)-1-(3-(3-(2,4-Difluorophenyl)-4-oxo-3,4-dihydrophthalazin-1-yl)phenyl)-N-methyl methanimine Oxide]	167	
CC(C)/[N+]([O-])=C/c1cccc(-c2nn(-c3ccc(F)cc3F)c(=O)c3ccccc23)c1 [Example 22, (Z)-1-(3-(3-(2,4-Difluorophenyl)-4-oxo-3,4-dihydrophthalazin-1-yl)phenyl)-N-isopropyl Methanimine Oxide]	201	
CC(C)(C)/[N+]([O-])=C/c1cccc(-c2nn(-c3ccc(F)cc3F)c(=O)c3ccccc23)c1 [Example 23, (Z)—N-tert-Butyl-1-(3-(3-(2,4-difluorophenyl)-4-oxo-3,4-dihydrophthalazin-1-yl)phenyl)methanimine Oxide]	192	
Nc1cccc(-c2nn(-c3ccc(F)cc3F)c(=O)c3ccccc23)c1 [Example 24, 4-(3-Aminophenyl)-2-(2,4-difluorophenyl)phthalazin-1(2H)-one]	147	
CCS(=O)(=O)Nc1cccc(-c2nn(-c3ccc(F)cc3F)c(=O)c3ccccc23)c1 [Example 25, N-(3-(3-(2,4-Difluorophenyl)-4-oxo-3,4-dihydrophthalazin-1-yl)phenyl)ethanesulfonamide]	147	
COC(=O)NS(=O)(=O)Nc1cccc(-c2nn(-c3ccc(F)cc3F)c(=O)c3ccccc23)c1 [Example 26, Methyl (N-(3-(3-(2,4-difluorophenyl)-4-oxo-3,4-dinydrophthalazin-1-yl)phenyl)sulfamoyl)carbamate]	180	
C/[N+]([O-])=C/c1cccc(-c2nn(-c3cccc(F)c3)c(=O)c3ccccc23)c1 [Example 27, (Z)-1-(3-(3-(3-Fluorophenyl)-4-oxo-3,4-dihydrophthalazin-1-yl)phenyl)-N-methylmethanimine Oxide]	148	
CC(C)/[N+]([O-])=C/c1cccc(-c2nn(-c3cccc(F)c3)c(=O)c3ccccc23)c1 [Example 28, (Z)-1-(3-(3-(3-Fluorophenyl)-4-oxo-3,4-dihydrophthalazin-1-yl)phenyl)-N-isopropylmethanimine Oxide]	154	
CC(C)(C)/[N+]([O-])=C/c1cccc(-c2nn(-c3cccc(F)c3)c(=O)c3ccccc23)c1 [Example 29, (Z)—N-tert-Butyl-1-(3-(3-(3-fluorophenyl)-4-oxo-3,4-dihydrophthalazin-1-yl)phenyl)methanimine Oxide]	162	
CCS(=O)(=O)Nc1cccc(-c2nn(-c3cccc(F)c3)c(=O)c3ccccc23)c1 [Example 30, N-(3-(3-(3-Fluorophenyl)-4-oxo-3,4-dihydrophthalazin-1-yl)phenyl)ethanesulfonamide]	117	
